Read-outs that look alike come from different tables or passages of the source. Marks after values point to notes of the source that are not given here.
What was measured:
hMAO-A = target: T1, hMAO-A (Homo sapiens, UniProt P21397); assay: Inhibition of human recombinant MAO A (Amplex Red assay)
T1 sequence (P21397 1-527): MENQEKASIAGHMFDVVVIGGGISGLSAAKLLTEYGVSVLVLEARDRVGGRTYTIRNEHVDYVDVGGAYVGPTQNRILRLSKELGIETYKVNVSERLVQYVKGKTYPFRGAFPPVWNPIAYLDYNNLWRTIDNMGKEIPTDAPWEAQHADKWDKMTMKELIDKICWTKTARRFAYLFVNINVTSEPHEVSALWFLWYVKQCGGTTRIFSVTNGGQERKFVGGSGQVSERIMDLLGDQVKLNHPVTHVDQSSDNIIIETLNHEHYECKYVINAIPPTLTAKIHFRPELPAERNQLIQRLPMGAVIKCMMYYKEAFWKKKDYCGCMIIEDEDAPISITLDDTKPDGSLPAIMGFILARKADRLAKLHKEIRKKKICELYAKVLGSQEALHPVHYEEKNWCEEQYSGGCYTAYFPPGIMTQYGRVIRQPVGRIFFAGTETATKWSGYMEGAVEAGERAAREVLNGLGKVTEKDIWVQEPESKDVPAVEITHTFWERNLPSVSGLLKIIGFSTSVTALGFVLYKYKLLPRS

hMAO-B = target: T2, hMAO-B (Homo sapiens, UniProt P27338); assay: Inhibition of human recombinant MAO B (Amplex Red assay); settings: for Ratio, selectivity ratios [IC50(MAO-A)]/[IC50(MAO-B)]: bounds assume IC50 against MAO-A is the highest concentration tested (100 μM); for Ratio: assumes the inactive isoform IC50 is the highest concentration tested (100 μM)
T2 sequence (P27338 1-520): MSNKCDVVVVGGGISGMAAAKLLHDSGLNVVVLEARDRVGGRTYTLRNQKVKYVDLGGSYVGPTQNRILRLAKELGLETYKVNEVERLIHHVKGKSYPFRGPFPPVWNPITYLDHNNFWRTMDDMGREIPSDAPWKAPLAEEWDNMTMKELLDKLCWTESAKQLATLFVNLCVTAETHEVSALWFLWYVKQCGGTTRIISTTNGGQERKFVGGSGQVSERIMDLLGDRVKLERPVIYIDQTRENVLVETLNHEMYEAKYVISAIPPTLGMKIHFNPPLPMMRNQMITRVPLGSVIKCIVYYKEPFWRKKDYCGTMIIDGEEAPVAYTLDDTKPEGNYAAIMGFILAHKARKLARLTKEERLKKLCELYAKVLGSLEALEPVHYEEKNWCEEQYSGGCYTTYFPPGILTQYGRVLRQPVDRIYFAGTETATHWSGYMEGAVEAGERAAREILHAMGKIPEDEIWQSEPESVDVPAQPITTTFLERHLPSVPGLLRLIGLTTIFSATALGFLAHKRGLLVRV

[1] = read-out: MAO-A (IC50), Table 3, highest concentration tested
[2] = read-out: MAO-B (IC50), Table 3, mean ± SEM from five experiments
[3] = read-out: MAO-A (IC50), Table 4, single enantiomers
[4] = read-out: MAO-B (IC50), Table 4, single enantiomers, mean ± SEM from five experiments

| Compound | Ratio, selectivity ratios [IC50(MAO-A)]/[IC50(MAO-B)] (hMAO-B; Table 3) | Ratio (hMAO-B; Table 4, single enantiomers) | IC50 (hMAO-A; [3]) [nM] | other results |
| --- | --- | --- | --- | --- |
| Cc1ccc(C2=NOC(c3ccc(F)cc3)C2)cc1 (racemic) [EMAC II k] | >312^d |  |  | IC50 (hMAO-A; [1]): > 100000 nM; IC50 (hMAO-B; [2]): 320 ± 13.6 nM |
| Cc1ccc(C2=NO[C@@H](c3ccc(Cl)cc3)C2)cc1 [R-(−) EMAC II i] |  | 6549^b |  | IC50 (hMAO-A): > 100000 nM; IC50 (hMAO-B): 15.3 ± 0.95 nM |
| COc1ccc([C@H]2CC(c3ccc(C)cc3)=NO2)cc1 [R-(−) EMAC II m] |  | 792.6^b | > 100000 | IC50 (hMAO-B; [4]): 126 ± 8.44 nM |
| Cc1ccc(C2=NO[C@H](c3ccc(C)cc3)C2)cc1 [S-(+) EMAC II j] |  | 3188^b | > 100000 |  |
| Cc1ccc(C2=NO[C@H](c3ccc(Cl)c(Cl)c3)C2)cc1 [S-(+) EMAC II l] |  | 9124 |  | IC50 (hMAO-A): > 100000 nM |
| COc1ccc(C2CC(c3ccc(C)cc3)=NO2)cc1 (racemic) [EMAC II m] | >222^d |  |  | IC50 (hMAO-A; [1]): > 100000 nM; IC50 (hMAO-B; [2]): 450 ± 18 nM |
| Cc1ccc(C2=NOC(c3ccc(Cl)c(Cl)c3)C2)cc1 (racemic) [EMAC II l] | >8354^d |  |  | IC50 (hMAO-A; [1]): > 100000 nM; IC50 (hMAO-B; [2]): 12 ± 0.37 nM |
| Cc1ccc(C2=NOC(c3ccc(Cl)cc3)C2)cc1 (centres unmarked) [EMAC II i] | >961^d |  |  | IC50 (hMAO-A): > 100000 nM; IC50 (hMAO-B): 104 ± 3.69 nM |
| Cc1ccc(C2=NO[C@@H](c3ccc(C)cc3)C2)cc1 [R-(−) EMAC II j] |  | 39 216^b | > 100000 | IC50 (hMAO-B; [4]): 2.55 ± 0.11 nM |
| Cc1ccc(C2=NO[C@@H](c3ccc(Cl)c(Cl)c3)C2)cc1 [R-(−) EMAC II l] |  | 52 910^b |  | IC50 (hMAO-A): > 100000 nM; selectivity towards MAO B, increase of the enantiomer versus the racemic mixture (hMAO-B): increased by more than six folds |
| COc1ccc([C@@H]2CC(c3ccc(C)cc3)=NO2)cc1 [S-(+) EMAC II m] |  | 342.6 | > 100000 | IC50 (hMAO-B; [4]): 292 ± 13.4 nM |
| Cc1ccc(C2=NO[C@H](c3ccc(Cl)cc3)C2)cc1 [S-(+) EMAC II i] |  |  | > 100000 | IC50 (hMAO-B; read-out: MAO-B (IC50), Table 4, single enantiomers): > 100000 nM |
| Cc1ccc(C2=NOC(c3ccc(C)cc3)C2)cc1 (racemic) [EMAC II j] | >2436^d |  |  | IC50 (hMAO-A; [1]): > 100000 nM; IC50 (hMAO-B; [2]): 41 ± 1.52 nM |
| Cc1ccc(C2=NO[C@@H](c3ccc(F)cc3)C2)cc1 [R-(−) EMAC II k] |  | 333.5^b | > 100000 | IC50 (hMAO-B; [4]): 300 ± 12 nM |
| Cc1ccc(C2=NO[C@H](c3ccc(F)cc3)C2)cc1 [S-(+) EMAC II k] |  | 2956^b | > 100000 |  |

Source: paper PMC6009968, “Through scaffold modification to 3,5-diaryl-4,5-dihydroisoxazoles: new potent and selective inhibitors of monoamine oxidase B” (Journal of Enzyme Inhibition and Medicinal Chemistry, 2017)
